From patent publication US8569000B2, “Immunoassays using antibodies specific to carbamazepine” (priority 2011, dated 2013)

Test system: antibody specific to carbamazepine
Test: Interference from other drugs in the carbamazepine ELISA assay
Type: binding, rabbit
Settings: chemical tested at 10.0 μg/ml; procedures of Example 4 (ELISA); duplicate
Source text: The Carbamazepine ELISA was developed with the antibody generated from Example 3. This assay is a competitive micro-immunoassay for determination of carbamazepine in a fluid sample. Carbamazepine in the fluid sample and carbamazepine derivative linked with the enzyme (HRP)-conjugate compete for the finite sites of the antibody coated on the solid surface of the microwell. If little or no carbamazepine is present in the fluid sample, more enzyme labeled carbamazepine derivative will bind to the antibody on the solid surface. Conversely, if a large or a significant amount of carbamazepine is present in the fluid sample, less enzyme labeled carbamazepine derivative will bind to the antibody, producing less color signal. The absorbance produced is inversely proportional to the amount of carbamazepine in the fluid sample.
Interference from other drugs was tested using 30 frequently used chemicals and medicines, at concentrations of 10.0 μg/ml.
The samples were tested in duplicate, following the procedures used in Example 4. All 30 samples produced a negative test result. Thus, the immunoassay of the present disclosure is specific to carbamazepine.

Row | Compound | Equivalent Carbamazepine Conc. [µg/mL]
1 | CN[C@@H](C)[C@H](O)c1ccccc1 [(L)-Ephedrine] | <0.1
2 | CN1C(=O)CC[C@H]1c1cccnc1 [(−)-Cotinine] | <0.1
3 | CC(=O)Oc1ccccc1C(=O)O [Acetylsalicylic Acid] | <0.1
4 | CCC1(CCC(C)C)C(=O)NC(=O)NC1=O [Amobarbital] | <0.1
5 | CC1(C)S[C@@H]2[C@H](NC(=O)[C@H](N)c3ccccc3)C(=O)N2[C@H]1C(=O)O [Ampicillin] | <0.1
6 | Cn1c(=O)c2c(ncn2C)n(C)c1=O [Caffeine] | <0.1
7 | CN(C)CCCN1c2ccccc2Sc2ccc(Cl)cc21 [Chlorpromazine] | <0.1
8 | O=C(O)C1N=C(c2ccccc2)c2cc(Cl)ccc2NC1=O (centres unmarked) [Clorazepate] | <0.1
9 | CN1C(=O)CN=C(c2ccccc2)c2cc(Cl)ccc21 [Diazepam] | <0.1
10 | COC(=O)[C@@H]1[C@H]2CC[C@@H](C[C@@H]1O)N2C [Ecgonine Methyl Ester] | <0.1
11 | CC(C(=O)O)c1cccc(Oc2ccccc2)c1 (centres unmarked) [Fenoprofen] | <0.1
12 | Cc1ccc(C)c(OCCCC(C)(C)C(=O)O)c1 [Gemfibrozil] | <0.1
13 | O=C(O)c1cc(O)ccc1O [Gentisic Acid] | <0.1
14 | COc1ccc2c3c1O[C@H]1C(=O)CC[C@H]4[C@@H](C2)N(C)CC[C@]314 [Hydrocodone] | <0.1
15 | CC(C)Cc1ccc(C(C)C(=O)O)cc1 (centres unmarked) [Ibuprofen] | <0.1
16 | CN(C)CCCN1c2ccccc2CCc2ccccc21 [Imipramine] | <0.1
17 | CCN(CC)CC(=O)Nc1c(C)cccc1C [Lidocaine] | <0.1
18 | COc1ccc2cc([C@H](C)C(=O)O)ccc2c1 [Naproxen] | <0.1
19 | NC(=O)c1cccnc1 [Niacinamide] | <0.1
20 | CNC[C@H](O)c1cccc(O)c1 [Phenylephrine] | <0.1
21 | CC(N)C(O)c1ccccc1 (centres unmarked) [Phenylpropanolamine] | <0.1
22 | CCN(CC)CCNC(=O)c1ccc(N)cc1 [Procainamide] | <0.1
23 | CCN(CC)CCOC(=O)c1ccc(N)cc1 [Procaine] | <0.1
24 | C=C[C@H]1C[N@@]2CC[C@H]1C[C@@H]2[C@@H](O)c1ccnc2ccc(OC)cc12 [Quinidine] | <0.1
25 | Cc1cc(CC(=O)O)n(C)c1C(=O)c1ccc(Cl)cc1 [Zomepirac] | <0.1
26 | NCCc1ccccc1 [beta-Phenylethylamine] | <0.1
27 | CN[C@@H](C)Cc1ccccc1 [d-Methamphetamine] | <0.1
28 | Ecgonine | <0.1
29 | Penicillin | <0.1
